Literature values in patent publication US8895557B2, “Pharmaceutical formulations of ecteinascidin compounds” (Pharma Mar, S.A., Sociedad Unipersonal, priority 2004, dated 2014).

What was measured:
[1] = test system: human tumour xenografts, including melanoma and ovarian and breast carcinoma; conditions: human tumour xenografts in athymic mice
[2] = test system: sarcoma and breast and ovarian carcinoma; conditions: phase I, patients with sarcoma and breast and ovarian carcinoma
[3] = mannitol/phosphate lyophilised product reconstituted with 5 ml Water for Injection, ambient temperature

## COc1cc2c(cc1O)CCN[C@]21CS[C@@H]2c3c(OC(C)=O)c(C)c4c(c3[C@H](COC1=O)N1C2C2c3c(cc(C)c(OC)c3O)C[C@@H]([C@@H]1O)N2C)OCO4 (stereo partly shown) [ET-743, Ecteinascidin 743]
[1]
  antineoplastic activity: potent antineoplastic activity
[2]
  clinical responses: promising responses were observed
[3]
  time for which the reconstituted solution is stable: up to 24 h
other
  aqueous solubility: limited aqueous solubility
